Reference: patent US7906624B2, “Binding peptidomimetics and uses of the same” (The Trustees of the University of Pennsylvania, priority 2004, dated 2011)

Tests used:
[1] = tested on: T6-17 cells (Her2 transformed cells); test: MTT cell proliferation assay, T6-17 cells; assay type: cell-based
Procedure: (§1) FIG. 5, panels A and B show inhibition of cell proliferation by ASA. Effects of ASA treatment, or treatments with streptavidin and the peptide AHNP, on the proliferation of T6-17 (Her2 transformed cells, Panel A) or NR6 (control cells, Panel B) were shown; Cell proliferation was measured by the standard MTT assay performed on poly-HEMA plates (for T6-17) or regular tissue culture plates (for NR6).
(§2) T6-17 and NR6 cells were grown in DMEM medium supplemented with 10% heat inactivated fetal calf serum, L-glutamine (2 mM), penicillin (100 U/ml) and streptomycin (100 μg/ml) at 37° C. in a humidified 5% CO2 atmosphere.
(§3) The MTT assay has been used modified method for measuring cell growth. T6-17 cells or NR6 cells were seeded in poly 2-hydroxyethyl methacrylate coated 96 well plates (50 μl/well, 800 cells/well or 1200 cells/well). Then the Streptavidin or ASA protein or the AHNP peptide were (50 μl/well, 0.69 μM or 6.9 μM) and incubate at 37° C. in a humidified 5% CO2 atmosphere for 48 hr. A total of 25 μl of MTT solution (5 mg/ml in PBS) was added to each well, and after 2 hr of incubation at 37° C., 100 μl of the extraction-buffer (20% w/v SDS, 50% N,N-dimethyl formamide, pH 4.7) were added. After an overnight incubation at 37° C., the optical density at […] was measured using an ELISA reader.

[2] = tested on: NR6 cells (control cells); test: MTT cell proliferation assay, NR6 control cells; assay type: cell-based; settings: NR6 control cell line
Procedure: as §1, §2, §3

[3] = biological target: T1, Her2-human Fc fusion protein (Homo sapiens, UniProt P04626); test: ELISA for Her2-Fc binding of protein immobilized on biotin-coated plate; settings: 0-1.1 μg/well immobilized on biotin-coated plate; Her2-Fc 50 ng/well
T1 construct: Her2-human Fc fusion protein that was composed of the ectodomain of Her2 and the Fc of human IgG; purchased Xcyte Therapeutic, Seattle, Wash
Procedure: (§4) FIG. 4, panels A and B show data from enzyme-linked immunosorbent assay (ELISA) analysis of recombinant proteins for biotin and Her2-Fc binding ability. Panel A: Streptavidin or ASA was immobilized on biotin-coated plate. Bound protein was detected using an anti-streptavidin antibody-HRP. Panel B: After immobilization of Streptavidin or ASA on biotin-coated plate, Her2-human Fc fusion was added to each plate and bound fusion protein was detected using anti-Her2 antibody and anti-mouse IgG-HRP. The amounts of Streptavidin or ASA fusion protein used in this experiment were: well 1: 0; 2: 0.11 ng; 3: 1.1 ng; 4: 11 ng; 5: 110 ng; 6: 1100 ng.
(§5) The binding of ASA to Biotin and Her2 was determined by a modified ELISA assay. ELISA was performed at room temperature (RT) or 4° C. Purified streptavidin or ASA (0-1.1 μg/well) was immobilized on the biotin-coated ELISA plate (Pierce) for 1 hr at 4° C. in PBS. […] The A450 nm value of the plates was determined using an ELISA reader. Bound streptavidin was detected by the same method using an anti-streptavidin-HRP in PBS (1; 500 dilution; 50 μL/well).
(§6) The ASA fusion protein was tested to determine if it would bind to biotin as well as Her2. […] Bound Her2-Fc was detected by the mouse anti-Her2 antibody (4D5) and the HRP-conjugated anti-mouse IgG antibody.

[4] = tested on: T6-17 cells injected subcutaneously into nude mice; test: T6-17 tumor growth in nude mice; assay type: in vivo; settings: for reduction of tumor size: day 14
Procedure: 1 million of T6-17 cells were injected subcutaneously into nude mice to induce the tumor growth. Panel A. Treatment of ASA started from day 0. Panel B. Treatment started on day 2 after tumor were palpable. NCR homozygous athymic (nude) mice (six to eight weeks-old) were purchased from the National Cancer Institute. To induce tumor, 10^6 transformed T6-17 cells were suspended in 100 μl of PBS and injected subcutaneously into the flank of each animal. Animals were maintained in accordance with guidelines of the Institutional Animal Care and Use Committee (IACUC) of the University of […]. Tumor volume was calculated by the formula: π*length*width*Height/6. T6-17 cells were transformed by the over-expression of human Her2/neu […]. […] In one experiment, animals were treated with either streptavidin or ASA (11.25 mg/kg/week). Treatment stared from day 0 and was provided to animals by three subcutaneous injections each week. […] Treatment was also provided to mice by a different administration route in a second experiment, in which intraperitoneal treatment started day 2 after palpable tumor appeared ( 2 cubic mm) (FIG. 6, Panel B). ASA was given at the dose of 15 mg/kg/week, divided into three injections.

[5] = ELISA on biotin-coated plate, bound protein detected with anti-streptavidin antibody-HRP; assay type: binding; settings: 0-1.1 μg/well on biotin-coated plate
Procedure: as §4, §5, §6

[6] = in vivo; cited from earlier work

Row | Substance | inhibition of cell proliferation ([1]; T6-17 cells, two different concentrations (0.69 μM or 6.9 μM), 48 hr, MTT) | molar concentration of ASA relative to the AHNP peptide necessary to achieve 50% cell growth inhibition in vitro ([1]; in vitro, relative to AHNP peptide) | inhibitory effect on cell proliferation [2] | binding to Her2-Fc fusion (ELISA) [3] | appearance of palpable tumor prevented until ([4]; 11.25 mg/kg/week, subcutaneous, from day 0) | molar excess of AHNP with comparable activity in reducing tumor growth in vivo ([4]; ASA compared with AHNP) | reduction of tumor size ([4]; 11.25 mg/kg/week, three subcutaneous injections each week, from day 0) | reduction of tumor size ([4]; intraperitoneal, 15 mg/kg/week in three injections, from day 2 after palpable tumor, vs vehicle control) | binding to biotin (ELISA) [5] | serum half-life [6]
1 | ASA: Recombinant fusion of AHNP peptide, 11 amino acid linker GGGGSRSNSSS, streptavidin core and C-terminal NSSS linker plus His-tag; forms tetramer | 20-50% | about 10 times | Inhibitory effects were not observed | able to bind to the Her2-Fc fusion in a dose-dependent manner | 7 days | ~30 fold | 62% | about 47.6% | bound to biotin in a dose-dependent manner | –
2 | streptavidin: Tetrameric biotin-binding protein produced by Streptomyces avidinii; recombinant core used as control [reference compound] | – | – | – | didn't bind to the Her2-human Fc fusion protein even at the highest concentration | – | – | – | – | bound to biotin in a dose-dependent manner | about 12 hours
